Experimental data from patent US9289443B2, “Pharmaceutical composition and method for preventing or treating hepatitis C” (INDUSTRIAL TECHNOLOGY RESEARCH INSTITUTE, priority 2010, dated 2016).

Columns and labels:
[1] = tested on: HCV replicon system (Huh-luc/neo-ET cell carrying I389luc-ubi-NS3-3'/ET); assay: Inhibition of the HCV replication by determining the firefly luciferase activity (HCV replicon system); format: cell-based, Hepatitis C virus
Text: HCV replicon system was used to test the effects of compounds on the treatment and prevention of hepatitis C. The HCV replicon system has been acknowledged as a screening tool for new drugs (Lohmann, V. et al., 1999, Replication of subgenomic hepatitis C virus RNAs in hepatoma cell line, Science. Vol. 285, 110-113; Bartenschlager, R. 2002, Hepatitis C virus replicons: potential role for drug development, Nature Reviews/Drug Discovery. Vol. 1, 911-916; Vorlijk, J. M. et al., 2003, A replicon-based bioassay for the measurement of interferons in patients with chronic hepatitis C, Journal of Virological Methods. 110:201-209). The HCV replicon system includes a Huh-luc/neo-ET cell carrying I389luc-ubi-NS3-3′/ET gene construct which monitors the replicative capability of the HCV. In the HCV replicon system, a firefly luciferase-ubiquitin-neomycin fusion protein is expressed by the translation of the internal ribosomal entry site (IRES) of the HCV, and the hepatitis C viral nonstructural proteins (NS3-5B), which includes protease, helicase and polymerase, are expressed by the translation of the IRES of the encephalomyocarditis virus (EMCV).
The IRES of the hepatitis C virus or the hepatitis C viral nonstructural proteins consist of a replication complex. When the replication complex is affected by the candidate compound, the activity of the HCV replicon system is inhibited and the activity of the luciferase is reduced. Accordingly, the inhibition of the HCV can be estimated by determining the activity of the intensity of the luciferase expressed by the Huh-luc/noe-ET cell.
Inhibition of the HCV Replication by Determining the Firefly Luciferase Activity
(§1) Huh-luc/neo-ET cells with a concentration of 2.5×10^4 cells/100 μl/well were seeded into a 96 well culture plate (Corning Incorporation COSTAR, 3599) and placed into a cell incubator for culturing.
The oleanolic acid derivatives as listed in Table 2 were co-cultured with Huh-luc/neo-ET cells for 2 days. The mediums were washed twice by 100 μl of 1×PBS (1 mM KH2PO4, 10 mM Na2HPO4, 137 mM NaCl, 2.7 mM KCl) and PBS was removed. 35 μl of 1× passive lysis buffer (Promega, E1941) was added to the cells and vortexed for 10 minutes to thoroughly lysis the cells.
30 μl/well of the cell suspension was then added to a 96 well white plate (NUNC, 236108) for the measurement of the luciferase activity. Subsequently, 40 μl/well of luminescence analysis buffer and 20 μl/well of luminescence substrate (1 mM D-Luciferin) were added into the 96 well white plates. The luciferase activity (Rlu/s) was measured by a microplate luminescence meter (Berthold, MPL4) immediately.
The luciferase activity of the control was set as a standard to calculate the inhibition rates (%) of HCV of the experiment groups. The inhibition rates was calculated by the following formula: […]
After the test compounds were serial diluted and the inhibition rates of the HCV replication were determined at different concentrations, the concentration at 50% inhibition of the HCV replication (IC50) was calculated by grafit5 software (Erithacus Software).
For each experiment, 0.5 ng/ml and 0.1 ng/ml of the PEG IFN alpha-2a were used as positive controls for the IC50 test. Meanwhile, 1 μg/ml of cyclosporine A (CsA) was also used as a positive control for the IC50 test.

Huh-luc/neo-ET cells = assay: Cell cytotoxic test (MTT) on Huh-luc/neo-ET cells; format: cell-based; details: concentration for 15% cell kill, two-day culture
Experimental: (§2) Cell Cytotoxic Test on Huh-luc/noe-ET Cells
as §1
(§3) The next day, the oleanolic acid derivatives as listed in the following Tables 1 and 2 were diluted with a DMEM culture medium to the concentrations of 28.73 μg/ml, 9.57 μg/ml, 3.19 μg/ml, 1.06 μg/ml, 0.35 μg/ml, 0.11 μg/ml, 0.039 μg/ml and 0.013 μg/ml, respectively, or diluted to the concentrations of 114.92 μg/ml, 38.33 μg/ml, 12.77 μg/ml, 4.25 μg/ml, 1.42 μg/ml, 0.46 μg/ml, 0.16 μg/ml and 0.057 μg/ml, respectively. The initial medium in the 96 well culture plate was sucked out by a vacuum pump (DOAT-704AA) without removing the cells. Then, the culture medium containing the oleanolic acid derivatives were added into the 96 well culture plate containing 100 μl/well of the cells as the experiment groups, while the untreated culture mediums were added to the cells as a control.
(§4) After a two-day culture, the medium was removed and each well containing cells was washed by 100 μl of 1×PBS (1 mM KH2PO4, 10 mM Na2HPO4, 137 mM NaCl, 2.7 mM KCl) twice. Precipitates were recorded and PBS was removed. 50 μl of the medium containing 0.5 mg/ml of MTT (Sigma, M2128) was added into each well of the 96 well culture plate. The 96 well culture plate was placed in a CO2 culture incubator for 1 hour. Subsequently, 150 μl of DMSO (Riedel-de Haül, 60153) was added to each well of the 96 well culture plate and vortexed (KS shaker Type 670) to thoroughly mix the resulting purple precipitates. The 96 well culture plate was then placed in a continuous wave length microwell plate analysis system (Molecular Devices, SPECTRAMAX 190) to measure the absorbance of cells at a wavelength of 560 nm.
(§5) The average absorbance of the control was set as 100% of the cell survival rates (%) to calculate the cell survival rates (%) of the experiment groups with different concentrations of the oleanolic acid derivatives.
(§6) The cell survival rate was calculated by the following formula: Absorbance of the experiment group/Absorbance of the control×100%
(§7) The data of the cell survival rates for all experiment groups were plotted on an x-y graph to see the distribution. A trend line was obtained. […]

[2] = Cell cytotoxic test (MTT) on Huh-luc/neo-ET cells; format: cell-based; details: human, concentration for 50% cell kill, two-day culture
Experimental: as §2, §1, §3, §4, §5, §6, §7

Compound: C=CC(C)(CC/C=C(\CO)C(=O)OC1CC2(C(=O)OC3OCC(OC4CC(CO)C(O)C(OC5OC(CO)C(OC6OC(C)C(O)C(O)C6O)C(O)C5O)C4O)C(O)C3O)CCC3(C)C(=CCC4C5(C)CCC(OC6OC(CO)C(OC7OC(CO)C(O)C(OC8OCC(O)C(O)C8O)C7O)C(O)C6O)C(C)(C)C5CCC43C)C2CC1(C)C)OC1OC(C)C(O)C(O)C1O (centres unmarked) [A27]
- inhibition at 10 µM ([1]; Hepatitis C virus, Huh-luc/neo-ET, 48 h, compound concentration 10 μM, 2 days co-culture, luciferase activity, read-out: Inhibition rate (%)): 96.9 ± 0.6%
- IC50 ([1]; Hepatitis C virus, concentration for 50% inhibition of the HCV replication, Huh-luc/neo-ET replicon cells, read-out: IC50): 0.72 ± 0.07 µM
- EW (CC50/IC50) ([1]; ratio of CC50/IC50): 106.56
- CC15 (Huh-luc/neo-ET cells): 19.44 µM
- CC50 at 2 days [2]: 76.7 µM
